What was measured:
G2019S-LRRK2 = biological target: T1, G2019S-LRRK2 (Homo sapiens, UniProt Q5S007, G2019S); experiment: LRRK2 phosphorylation (kinase) assay in HEK293T cells expressing G2019S-LRRK2; assay type: cell-based; settings: 1 h
T1 construct: expressed in transfected cells; host or cells: HEK293T
Description: LRRK2 kinase assay was adapted from previous studies using autophosphorylation of cell lysates or brain homogenates. Briefly, HEK 293T were transiently transfected with various LRRK2 variants or kinase domain fragments for 36 h, followed by no serum starvation for 12 h, and then treated with compound 70 and 68 for 1 h. The cells were harvested using lysis buffer (Cell Signaling). Mouse brains were homogenated using RIPA buffer (Cell Signaling). The resulting cell lysates or brain homogenates were immunoprecipitated using anti-Flag antibodies. The immunoprecipitates were subjected to Western blot using anti-phosphorylation LRRK2 antibodies at S935 and S2032 residues as described previously. In some cases, immunoprecipitates were incubated with kinase reaction buffer for 90 min at 30° C. containing 50 mM MgCl2, 500 μM ATP, and 10 μCi of [γ-^32P]ATP (3,000 Ci/mmol) followed by 4-12% SDS/PAGE separation and blotted onto PVDF membranes. Quantification was performed with a phosphoimager (Bio-Rad Molecular Imager FX). GTP binding assays were performed. […]
For LRRK2 phosphorylation assays, HEK293T cells were transfected with various LRRK2 variants for 36 h, then were incubated in media without serum for 12 hours. […] The LRRK2 autophosphorylation with ^32P incorporation was separated by SDS/PAGE gel and quantified with a phosphoimager (Bio-Rad Molecular Imager).

LRRK2 [1] = experiment: LRRK2 GTP binding assay (GTP-agarose pull-down from lysates of transfected HEK293T cells); set-up: species or system human; settings: for effect on wild type and PD-linked mutant LRRK2 GTP-binding activity: 10 μM
Description: LRRK2 kinase assay was adapted from previous studies using autophosphorylation of cell lysates or brain homogenates. Briefly, HEK 293T were transiently transfected with various LRRK2 variants or kinase domain fragments for 36 h, followed by […] serum starvation for 12 h, and then treated with compound 70 and 68 for 1 h. The cells were harvested using lysis buffer (Cell Signaling). Mouse brains were homogenated using RIPA buffer (Cell Signaling). The resulting cell lysates or brain homogenates were immunoprecipitated using anti-Flag antibodies. The immunoprecipitates were subjected to Western blot using anti-phosphorylation LRRK2 antibodies at S935 and S2032 residues as described previously. In some cases, immunoprecipitates were incubated with kinase reaction buffer for 90 min at 30° C. containing 50 mM MgCl2, 500 μM ATP, and 10 μCi of [γ-^32P]ATP (3,000 Ci/mmol) followed by 4-12% SDS/PAGE separation and blotted onto PVDF membranes. Quantification was performed with a phosphoimager (Bio-Rad Molecular Imager FX). GTP binding assays were performed. […] The resulting beads were washed three times with cell lysis buffer, and bound protein was eluted by adding SDS-PAGE sample buffer and heating for 10 min at 72° C. Precipitates were subjected to Western blot analysis using anti-Flag antibodies.
GTP binding assays were performed using GTP-agarose beads (Sigma) as described previously. Lysates of HEK 293T cells expressing LRRK2 proteins were incubated with 68 or FX2149 at various concentrations for 1 h. The GTP-agarose beads were added for an additional 2 h. The samples were subjected to Western blot analysis using anti-Flag antibodies. LRRK2 kinase assays were performed using LRRK2 phosphorylation and in vitro ^32P incorporation methods as described previously.

LRRK2 [2] = biological target: T2, LRRK2 (Mus musculus, UniProt Q5S006, G2019S); experiment: brain LRRK2 GTP binding in G2019S-LRRK2-BAC transgenic mice; assay type: in vivo; settings: for effect on brain LRRK2 GTP binding activity: 1 h after injection
T2 construct: tissue Jackson Laboratory 012467; host or cells: brain homogenate of G2019S-LRRK2-BAC transgenic mice
T2 sequence (Q5S006 whole entry G2019S): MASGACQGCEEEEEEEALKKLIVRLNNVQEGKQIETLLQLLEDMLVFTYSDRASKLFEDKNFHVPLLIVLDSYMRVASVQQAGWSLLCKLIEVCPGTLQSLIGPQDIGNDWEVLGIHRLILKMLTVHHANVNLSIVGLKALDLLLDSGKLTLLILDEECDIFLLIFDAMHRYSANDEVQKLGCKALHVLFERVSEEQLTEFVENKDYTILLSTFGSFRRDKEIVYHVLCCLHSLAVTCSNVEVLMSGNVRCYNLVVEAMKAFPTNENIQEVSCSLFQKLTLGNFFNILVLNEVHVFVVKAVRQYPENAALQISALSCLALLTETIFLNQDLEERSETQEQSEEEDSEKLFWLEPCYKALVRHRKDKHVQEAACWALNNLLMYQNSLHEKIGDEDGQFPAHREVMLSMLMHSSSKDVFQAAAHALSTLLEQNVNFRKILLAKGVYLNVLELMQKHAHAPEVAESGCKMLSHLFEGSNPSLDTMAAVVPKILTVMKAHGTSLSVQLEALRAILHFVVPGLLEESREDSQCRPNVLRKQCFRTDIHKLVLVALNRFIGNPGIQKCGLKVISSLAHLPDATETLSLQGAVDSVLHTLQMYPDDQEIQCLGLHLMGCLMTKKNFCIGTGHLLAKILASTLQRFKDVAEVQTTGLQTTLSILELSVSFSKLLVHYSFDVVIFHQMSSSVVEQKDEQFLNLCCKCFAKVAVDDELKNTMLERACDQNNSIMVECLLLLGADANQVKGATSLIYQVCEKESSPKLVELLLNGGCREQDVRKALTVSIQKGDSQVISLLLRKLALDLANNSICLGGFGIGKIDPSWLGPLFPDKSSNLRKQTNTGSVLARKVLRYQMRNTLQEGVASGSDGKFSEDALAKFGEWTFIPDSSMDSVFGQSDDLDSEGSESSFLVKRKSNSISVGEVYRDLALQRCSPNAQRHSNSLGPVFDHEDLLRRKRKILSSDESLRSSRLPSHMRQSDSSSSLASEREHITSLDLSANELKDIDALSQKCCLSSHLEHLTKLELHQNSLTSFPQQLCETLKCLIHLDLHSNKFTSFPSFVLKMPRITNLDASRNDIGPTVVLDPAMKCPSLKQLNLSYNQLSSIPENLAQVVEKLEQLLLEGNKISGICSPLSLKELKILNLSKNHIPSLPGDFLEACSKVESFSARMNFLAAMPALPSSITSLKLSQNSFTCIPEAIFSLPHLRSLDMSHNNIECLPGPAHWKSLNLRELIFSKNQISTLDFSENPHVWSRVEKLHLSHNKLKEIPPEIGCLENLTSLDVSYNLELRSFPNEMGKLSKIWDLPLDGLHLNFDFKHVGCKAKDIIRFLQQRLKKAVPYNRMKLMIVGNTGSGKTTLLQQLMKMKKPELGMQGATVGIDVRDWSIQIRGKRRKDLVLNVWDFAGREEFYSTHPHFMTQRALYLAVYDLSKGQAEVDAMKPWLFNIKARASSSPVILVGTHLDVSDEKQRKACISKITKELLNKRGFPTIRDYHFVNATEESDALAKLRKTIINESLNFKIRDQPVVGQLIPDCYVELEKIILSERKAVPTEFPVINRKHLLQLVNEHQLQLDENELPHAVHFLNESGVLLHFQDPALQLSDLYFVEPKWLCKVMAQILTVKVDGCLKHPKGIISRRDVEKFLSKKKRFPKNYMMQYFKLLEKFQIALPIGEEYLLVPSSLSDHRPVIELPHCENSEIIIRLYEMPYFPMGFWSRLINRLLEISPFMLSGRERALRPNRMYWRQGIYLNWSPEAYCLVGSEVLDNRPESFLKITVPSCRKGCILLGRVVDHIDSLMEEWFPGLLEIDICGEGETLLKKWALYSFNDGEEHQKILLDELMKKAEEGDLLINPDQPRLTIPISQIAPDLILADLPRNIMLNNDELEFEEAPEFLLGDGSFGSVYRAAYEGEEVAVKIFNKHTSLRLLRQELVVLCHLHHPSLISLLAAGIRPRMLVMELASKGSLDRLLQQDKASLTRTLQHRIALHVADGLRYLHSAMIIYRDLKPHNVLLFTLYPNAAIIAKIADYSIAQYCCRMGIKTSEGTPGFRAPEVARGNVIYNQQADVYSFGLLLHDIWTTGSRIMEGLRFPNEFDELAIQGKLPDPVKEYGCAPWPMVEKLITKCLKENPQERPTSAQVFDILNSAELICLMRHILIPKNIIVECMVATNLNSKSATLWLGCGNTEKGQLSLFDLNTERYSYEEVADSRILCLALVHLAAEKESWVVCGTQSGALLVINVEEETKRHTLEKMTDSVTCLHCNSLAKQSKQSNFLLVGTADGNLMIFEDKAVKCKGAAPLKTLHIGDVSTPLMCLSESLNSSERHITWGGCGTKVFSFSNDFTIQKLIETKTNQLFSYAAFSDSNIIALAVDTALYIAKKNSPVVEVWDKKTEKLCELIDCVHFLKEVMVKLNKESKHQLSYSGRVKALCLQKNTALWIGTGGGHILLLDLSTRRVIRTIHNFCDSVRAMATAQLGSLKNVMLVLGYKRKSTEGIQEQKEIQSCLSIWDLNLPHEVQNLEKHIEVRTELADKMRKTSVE
Description: (§1) To assess whether 70 and 68 alter LRRK2 activities in vivo, G2019S-LRRK2-BAC transgenic mice were used. […] Only the effects of 68 on LRRK2 functions were tested in vivo using G2019S-LRRK2-BAC transgenic mice. Vehicle or 68 at 10 and 20 mg/kg was injected intraperitoneally for one hour. Mouse brain homogenates were subjected to LRRK2 autophosphorylation and GTP binding assays.
LRRK2 kinase assay was adapted from previous studies using autophosphorylation of cell lysates or brain homogenates. Briefly, HEK 293T were transiently transfected with various LRRK2 variants or kinase domain fragments for 36 h, followed by […] serum starvation for 12 h, and then treated with compound 70 and 68 for 1 h. The cells were harvested using lysis buffer (Cell Signaling). Mouse brains were homogenated using RIPA buffer (Cell Signaling). The resulting cell lysates or brain homogenates were immunoprecipitated using anti-Flag antibodies. The immunoprecipitates were subjected to Western blot using anti-phosphorylation LRRK2 antibodies at S935 and S2032 residues as described previously. In some cases, immunoprecipitates were incubated with kinase reaction buffer for 90 min at 30° C. containing 50 mM MgCl2, 500 μM ATP, and 10 μCi of [γ-^32P]ATP (3,000 Ci/mmol) followed by 4-12% SDS/PAGE separation and blotted onto PVDF membranes. Quantification was performed with a phosphoimager (Bio-Rad Molecular Imager FX). GTP binding assays were performed. Cell lysates or brain homogenates (100 μg protein/per reaction) were incubated with vehicle or compounds at 1-50 μM concentration for 1 h followed by addition of GTP-agarose beads (Sigma) for an additional 2 h at 4° C. The resulting beads were washed three times with cell lysis buffer, and bound protein was eluted by adding SDS-PAGE sample buffer and heating for 10 min at 72° C. Precipitates were subjected to Western blot analysis using anti-Flag antibodies.
To assess the effects of FX2149 on LRRK2 in brains compared with 68, both 68 and FX2149 were injected intraperitoneally into G2019S-BAC-LRRK2 transgenic mice at 10 and 20 mg/kg doses. One hour after the injection, the mouse brain homogenates were subjected to LRRK2 GTP binding and kinase assays. Both 68 (20 mg/kg) and FX2149 (10 mg/kg) reduced LRRK2 GTP binding activity in mouse brains (FIGS. 32 and 33). […] To further confirm the effect of FX2149, we also assessed a LRRK2 downstream effector, 4E-BP phosphorylation. 4E-BP is a […] that can be phosphorylated by LRRK2. […] FX2149 at a 10 mg/kg dose reduced 4E-BP up to 15% of the untreated control group, while 68 at a 20 mg/kg dose reduced 4E-BP up to 15% of the untreated control group.

LRRK2 [3] = biological target: T2, LRRK2; experiment: brain LRRK2 phosphorylation (kinase activity) in G2019S-LRRK2-BAC transgenic mice; assay type: in vivo; settings: 1 h after injection
Description: as §1
LRRK2 kinase assay was adapted from previous studies using autophosphorylation of cell lysates or brain homogenates. Briefly, HEK 293T were transiently transfected with various LRRK2 variants or kinase domain fragments for 36 h, followed by no serum starvation for 12 h, and then treated with compound 70 and 68 for 1 h. The cells were harvested using lysis buffer (Cell Signaling). Mouse brains were homogenated using RIPA buffer (Cell Signaling). The resulting cell lysates or brain homogenates were immunoprecipitated using anti-Flag antibodies. […] Quantification was performed with a phosphoimager (Bio-Rad Molecular Imager FX). […]
To assess the effects of FX2149 on LRRK2 in brains compared with 68, both 68 and FX2149 were injected intraperitoneally into G2019S-BAC-LRRK2 transgenic mice at 10 and 20 mg/kg doses. […] To further confirm the effect of FX2149, we also assessed a LRRK2 downstream effector, 4E-BP phosphorylation. […]

[4] = system: SH-SY5Y cells expressing G2019S-LRRK2; experiment: SH-SY5Y cell viability assay (G2019S-LRRK2-induced neuronal degeneration); assay type: cell-based, human
Description: Mouse primary cortical neurons were derived from CD-1 outbred mice (The Jackson Laboratory) at embryonic day 16 and cultured on 24 well plates coated with laminin- and poly-D-lysine-coated plates (BD Biosource, San Diego). Neurons were grown in neurobasal medium containing B-27 supplement, Glutamax, and penicillin/streptomycin. LRRK2 constructs were transfected into mouse primary cortical neurons using Lipofectamine 2000 (Invitrogen) according to the manufacturer's protocol. Cell viability assays were conducted. pcDNA3.1-GFP and FLAG-LRRK2 constructs at 1:15 ratio were cotransfected into SH-SY5Y cells (neurons) in 10% FBS OPTI-I media for 24 h. The media were changed to DMEM containing N2 supplement for 24 h. Cell viability was measured by counting GFP-positive viable cells (neurons) from 20 randomly selected fields using fluorescence microscopy. Viable cells (neurons) with one smooth extension (neurite) twice the length of the cell body were counted.
SH-SY5Y cell viability assays were conducted as described. […] Cell viability was measured by counting the healthy viable cells that contained at least one smooth extension (neurite) that was twice the length of the cell body from 20 randomly selected fields using fluorescence microscopy. […] The quantification for LRRK2 toxicity was performed by an investigator who was blind to transfection groups.

[5] = system: LPS-induced microglia activation and LRRK2 upregulation; experiment: LPS-based mouse neuroinflammation model, immunohistochemistry of substantia nigra; assay type: in vivo
Description: G2019S-LRRK2-BAC (Jackson, Lab. Cat: 012467) transgenic mice were food deprived for 4 h before surgery. There were 4 to 6 mice in each experimental group. Mice were anesthetized with isoflurane. LPS ([…] containing 15,000 endotoxin units, Sigma) was injected into the substantia nigra pars compacta unilaterally with a 1 μl volume at 0.2 μl/min flow rate as described previously. The stereotaxic coordinates were −3.4 anteroposterior (AP), −1.1 ML, and −3.9 DV with respect to bregma. After injection, the needle was kept in place for 5 min before withdrawal to avoid LPS leakage up the cannula track. […] Then 68 was injected twice daily for three days. The mice were perfused with 4% paraformaldehyde (PFA) in PBS and the brains were dissected and frozen in isopentane and stored in a −80° C. freezer for immunostaining Animal usage was approved by the University of Maryland School of Pharmacy.
Mice were perfused with saline and 4% paraformaldehyde. Frozen mouse brains were sectioned through the substantia nigra at 30 μm and the sections were subjected to immunohistochemical analysis as described previously. Briefly, frozen sections were placed in 0.6% H2O2 in methanol for 10 min followed by 5% normal goat serum (Sigma) to block non-specific reactions. Sections were then sequentially incubated with primary antibodies and biotinylated anti-rabbit secondary antibodies (Vector Laboratories) and avidin-biotin-peroxidase complex (ABC Elite kit, Vector Laboratories). Anti-LRRK2 (MJFF), anti-phosphorylated LRRK2 S935 (MJFF), and anti-isolectin antibodies were used as primary antibodies. Isolectin-B4:FITC or Isolectin-B4:Biotin were from Sigma. Some tissue sections were visualized by peroxidase reaction using diaminobenzidine (DAB, Sigma). Some tissue sections were probed with Alexa Fluor 488 goat anti-mouse (rabbit) IgG and Alexa Fluor 568 goat anti-mouse (rabbit) IgG (Invitrogen) as secondary antibodies. The specificity of the immunostaining was checked by incubating adjacent sections with each preabsorbed primary antibody. […] The density of red and green fluorescence in the 6 consecutive sections crossing the LPS injection site of each mouse was quantified using NIH image-J software. Six microscope field images (20×) from one brain section were subjected to fluorescence density quantification. […]
G2019S-LRRK2-BAC transgenic mice were anesthetized with isoflurane and injected with LPS (15,000 endotoxin units, 5 μg, Sigma) for each mouse in the substantia nigra pars compacta (SN) unilaterally as described previously. […] Some sections were added with anti-rabbit (mouse) biotinylated secondary antibody and avidin-biotin-peroxidase complex (Vector Laboratories), and detected by diaminobenzidine (DAB, Sigma). […]

[6] = system: SH-SY5Y cells expressing mutant G2019S-LRRK2; experiment: TUNEL assay in SH-SY5Y cells expressing mutant LRRK2; assay type: cell-based, human; settings: 100 nM
Description: Expression of mutant G2019S-LRRK2 led to neuronal degeneration in both SH-SY5Y and mouse primary cortical neurons as assessed by cell viability and DNA fragmentation (TUNEL) assays as previously described. […] To further confirm these findings, mouse primary cortical neurons were used to assess the effects of 70 and 68. Treatment of 70 (2 and 5 nM) and 68 (5 and 10 nM) protected against mutant LRRK2-induced neuronal degeneration (FIG. 15, panels (a) and (c)). Moreover, 70 and 68 both decreased the TUNEL-positive SH-SY5Y cells expressing mutant LRRK2 (FIG. 15, panel (d)).
SH-SY5Y cell viability assays were conducted as described. Cells were co-transfected with GFP and various pcDNA3.1-LRRK2 plasmids at a 1:15 ratio for 24 h in 10% FBS OPTI-I media and then changed to DMEM with N2 supplement for 24 h. Compounds were added after 4-h transfection. Cell viability was measured by counting the healthy viable cells that contained at least one smooth extension (neurite) that was twice the length of the cell body from 20 randomly selected fields using fluorescence microscopy. TUNEL assays were performed according to the manufacturer's instructions as described previously. The experiments were repeated three times in duplicate. The quantification for LRRK2 toxicity was performed by an investigator who was blind to transfection groups.

T1 sequence (Q5S007 whole entry G2019S): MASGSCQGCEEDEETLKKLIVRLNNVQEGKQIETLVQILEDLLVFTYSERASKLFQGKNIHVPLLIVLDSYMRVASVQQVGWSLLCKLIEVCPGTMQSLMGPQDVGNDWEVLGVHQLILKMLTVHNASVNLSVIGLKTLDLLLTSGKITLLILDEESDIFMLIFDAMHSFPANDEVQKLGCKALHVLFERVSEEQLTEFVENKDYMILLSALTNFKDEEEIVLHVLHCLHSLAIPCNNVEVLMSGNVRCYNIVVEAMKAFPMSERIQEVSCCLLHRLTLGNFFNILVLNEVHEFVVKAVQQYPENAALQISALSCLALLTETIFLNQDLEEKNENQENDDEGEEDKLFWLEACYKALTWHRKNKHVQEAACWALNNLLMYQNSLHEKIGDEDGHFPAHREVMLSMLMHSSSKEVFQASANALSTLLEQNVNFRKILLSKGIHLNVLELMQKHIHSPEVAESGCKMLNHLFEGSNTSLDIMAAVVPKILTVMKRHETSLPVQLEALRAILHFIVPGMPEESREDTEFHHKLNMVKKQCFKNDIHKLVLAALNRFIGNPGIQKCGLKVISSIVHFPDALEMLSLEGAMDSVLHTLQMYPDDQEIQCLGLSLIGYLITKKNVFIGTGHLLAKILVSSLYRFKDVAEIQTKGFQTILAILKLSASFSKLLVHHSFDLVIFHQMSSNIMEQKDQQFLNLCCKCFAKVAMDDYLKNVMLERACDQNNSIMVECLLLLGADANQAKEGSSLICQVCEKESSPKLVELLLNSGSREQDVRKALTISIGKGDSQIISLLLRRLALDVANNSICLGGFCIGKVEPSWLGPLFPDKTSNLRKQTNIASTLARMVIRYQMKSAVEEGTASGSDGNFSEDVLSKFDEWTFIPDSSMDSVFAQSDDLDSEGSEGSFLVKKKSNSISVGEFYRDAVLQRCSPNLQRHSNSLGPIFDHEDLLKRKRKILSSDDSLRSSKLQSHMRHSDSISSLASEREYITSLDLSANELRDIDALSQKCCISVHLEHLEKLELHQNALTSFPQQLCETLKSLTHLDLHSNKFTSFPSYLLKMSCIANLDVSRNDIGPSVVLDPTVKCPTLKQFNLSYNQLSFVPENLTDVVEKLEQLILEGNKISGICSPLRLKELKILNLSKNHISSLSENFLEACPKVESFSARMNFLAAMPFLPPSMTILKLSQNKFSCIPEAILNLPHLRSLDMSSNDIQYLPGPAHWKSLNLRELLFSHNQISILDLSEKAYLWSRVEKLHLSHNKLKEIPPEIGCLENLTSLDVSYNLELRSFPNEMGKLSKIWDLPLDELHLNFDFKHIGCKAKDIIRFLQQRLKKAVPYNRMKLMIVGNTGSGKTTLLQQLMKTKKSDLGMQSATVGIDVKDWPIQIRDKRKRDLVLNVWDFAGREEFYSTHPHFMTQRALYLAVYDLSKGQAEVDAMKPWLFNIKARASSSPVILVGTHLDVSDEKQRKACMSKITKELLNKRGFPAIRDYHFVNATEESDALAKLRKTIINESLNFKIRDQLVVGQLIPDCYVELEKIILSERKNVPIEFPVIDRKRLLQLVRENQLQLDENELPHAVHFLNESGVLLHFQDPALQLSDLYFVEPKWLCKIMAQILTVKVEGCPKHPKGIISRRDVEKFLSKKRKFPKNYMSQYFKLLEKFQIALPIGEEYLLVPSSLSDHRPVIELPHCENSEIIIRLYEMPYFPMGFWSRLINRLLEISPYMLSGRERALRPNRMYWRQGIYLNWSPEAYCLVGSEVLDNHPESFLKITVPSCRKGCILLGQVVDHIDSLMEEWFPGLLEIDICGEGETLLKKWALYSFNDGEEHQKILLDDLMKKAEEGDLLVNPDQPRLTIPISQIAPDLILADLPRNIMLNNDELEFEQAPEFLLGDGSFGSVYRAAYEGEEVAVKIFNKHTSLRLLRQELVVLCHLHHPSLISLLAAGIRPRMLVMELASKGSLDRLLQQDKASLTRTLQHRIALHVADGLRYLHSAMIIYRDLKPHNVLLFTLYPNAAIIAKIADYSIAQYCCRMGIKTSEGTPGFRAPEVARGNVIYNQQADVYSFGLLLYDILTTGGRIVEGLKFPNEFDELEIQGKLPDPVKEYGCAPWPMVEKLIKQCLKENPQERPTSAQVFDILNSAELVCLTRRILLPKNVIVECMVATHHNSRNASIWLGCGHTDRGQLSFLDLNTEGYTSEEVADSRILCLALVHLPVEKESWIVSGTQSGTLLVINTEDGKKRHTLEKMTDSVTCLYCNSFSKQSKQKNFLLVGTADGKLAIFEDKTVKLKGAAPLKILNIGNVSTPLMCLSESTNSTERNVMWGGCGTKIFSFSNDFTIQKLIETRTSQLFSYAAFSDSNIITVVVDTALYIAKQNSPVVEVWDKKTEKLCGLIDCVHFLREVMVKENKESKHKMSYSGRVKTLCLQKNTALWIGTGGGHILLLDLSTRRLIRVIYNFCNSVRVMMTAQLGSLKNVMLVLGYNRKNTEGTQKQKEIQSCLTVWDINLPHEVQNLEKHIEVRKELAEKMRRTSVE

Row | effect on LRRK2 phosphorylation (G2019S-LRRK2; 10 μM) | effect on brain LRRK2 GTP binding activity (LRRK2 [2]; 20 mg/kg i.p.) | effect on brain LRRK2 phosphorylation (kinase activity) (LRRK2 [3]; 20 mg/kg i.p.) | reduction of G2019S-LRRK2 kinase activity (phosphorylation at S935 and S2032) (G2019S-LRRK2; 100 nM) [%] | effect on brain LRRK2 GTP binding activity (LRRK2 [2]; 10 mg/kg i.p.) | brain (BBB) penetration inferred from brain LRRK2 GTP binding and kinase inhibition (LRRK2 [2]; after i.p. injection) | improvement of in vivo efficacy over 68 (LRRK2 [2]; mouse, in vivo) | effect on brain LRRK2 kinase activity (LRRK2 [3]; 10 mg/kg i.p.) | SMILES | effect on wild type and PD-linked mutant LRRK2 GTP-binding activity (LRRK2 [1]) | protection against mutant LRRK2-induced neurodegeneration ([4]; 50-200 nM) | viability of cells expressing G2019S-LRRK2 compared with vehicle treated cells ([4]; treated for 48 hours) | reduction of LPS-induced microglia activation compared with vehicle treated LPS mice ([5]; 10 mg/kg) [%] | LPS-induced LRRK2-positive immunostaining compared with vehicle controls ([5]; 10 mg/kg i.p.) | anti-phosphorylated-LRRK2 immunoactivity ([5]; 10 mg/kg i.p.) | isolectin B4 immunoactivity compared with the LPS alone treated group ([5]; 10 mg/kg i.p., twice daily for three days) [%] | TUNEL-positive cells expressing mutant G2019S-LRRK2 [6] | reduction of LRRK2 GTP binding activity (LRRK2 [1]; 10 nM) [%] | effect on LRRK2 binding with GTP (LRRK2 [1]; 1 and 10 nM) | effect on mutant LRRK2 variants (G2019S and R1441C) bound with GTP (LRRK2 [1]; 1 and 10 nM)
1 | did not alter | did not alter | did not alter |  |  |  |  |  | CC(C)NC(=O)c1cccc(NS(=O)(=O)c2cccnc2)c1 [FX2151, N-isopropyl-3-(pyridine-3-sulfonamido)benzamide] | did not alter |  |  |  |  |  |  |  |  |  | 
2 |  |  |  | ~90 | reduced | taken up into brains at a greater extent | more than 2 fold | significantly reduced | CCCNC(=O)c1cccc(NS(=O)(=O)c2cccnc2)c1 [FX2149, N-propyl-3-(pyridine-3-sulfonamido)benzamide] |  | protected | significantly increased | 57 | significantly reduced | significantly reduced | ~43 | significantly reduced | ~90 | significantly reduced | reduced
3 |  |  |  |  |  |  |  |  | O=C1Nc2ccc(I)cc2/C1=C/c1cc(Br)c(O)c(Br)c1 [GW5074, reference compound] | did not alter |  |  |  |  |  |  |  |  |  | 

Reference: US9701627B2, “LRRK2 GTP binding inhibitors for treatment of Parkinson's disease and neuroinflammatory disorders” (University of Maryland, Baltimore, priority 2014, dated 2017)
